This is an account of results in ChEMBL document CHEMBL3875215, “Neuritogenic activity of bi-functional bis-tryptoline triazole” (Bioorg Med Chem, 2017).

Data set [1] addresses T1, Beta-secretase 1 (Homo sapiens, UniProt P56817). In words: Inhibition of BACE1 (unknown origin) at 25 uM using beta-secretase substrate 4 after 30 mins by fluorescence spectrophotometric method relative to control.
The target of data set [2] is T1, Beta-secretase 1. In words: Inhibition of BACE1 (unknown origin) using beta-secretase substrate 4 after 30 mins by fluorescence spectrophotometric method.
Data set [3] in a line: Cytotoxicity against mouse P19 derived neurons assessed as cell viability at 10000 nM after 18 hrs by XTT assay relative to control. The note with it: read-out: Activity. Format: toxicity. In general terms: Tetrazolium assays rely on reduction of a dye to a coloured formazan, in cell work by metabolically active cells.
The nature of data set [4]: Cytotoxicity against mouse P19 derived neurons assessed as cell viability at 100 nM after 18 hrs by XTT assay relative to control. It is filed as toxicity. The note with it: read-out: Activity.
In data set [5] the target is T2, Amyloid-beta precursor protein (Homo sapiens, UniProt P05067). In words: Inhibition of human amyloid beta (1 to 42) aggregation incubated for 48 hrs under dark condition by ThT fluorescence assay.
A short description of data set [6]: Antioxidant activity assessed as inhibition of DPPH radical at 100 uM incubated for 30 mins under dark condition relative to control. It is filed as functional.
Data set [7] concerns SH-SY5Y. In words: Neuroprotective activity against aggregated amyloid beta-induced toxicity in human SH-SY5Y cells assessed as increase in cell viability at 1 to 10 uM preincubated for 2 hrs followed by aggregated amyloid beta addition measured after 24 hrs by MTT assay. Format: functional, cell-based.
The test system of data set [8] is P19. In words: Neuritogenic activity in mouse P19 derived neurons assessed as increase in neurite number at 1 nM after 18 hrs by phase contrast microscopic method relative to control. It is filed as functional.
The nature of data set [9]: Cytotoxicity against mouse P19 derived neurons assessed as cell viability at 1 nM after 18 hrs by XTT assay relative to control. It is filed as toxicity. To be noted: read-out: Activity.
The target in data set [10] is T2, Amyloid-beta precursor protein. Put plainly: Inhibition of human amyloid beta (1 to 42) aggregation at 100 uM incubated for 48 hrs under dark condition by ThT fluorescence assay relative to control.
The subject of data set [11] is P19. In words: Neuritogenic activity in mouse P19 derived neurons assessed as increase in neurite length at 1 nM after 18 hrs by phase contrast microscopic method relative to control. Format: functional.
Data set [12] in a line: Cytotoxicity against mouse P19 derived neurons assessed as cell viability at 10 nM after 18 hrs by XTT assay relative to control. It is filed as toxicity. The note with it: read-out: Activity.
Data set [13] is described as follows: Cytotoxicity against mouse P19 derived neurons assessed as cell viability at 1000 nM after 18 hrs by XTT assay relative to control. It is filed as toxicity. To be noted: read-out: Activity.
For data set [14], the target named is T2, Amyloid-beta precursor protein. In words: Inhibition of amyloid beta (1 to 42) aggregation (unknown origin).

As usually defined, the inhibition is the relative decrease from the control value, in per cent. The pIC50 is the negative decadic logarithm of the IC50, by convention in mol/L.

pIC50: −log10 of the molar value. Activity calls are given as the source filed them. No cut-off for these calls is given here.

T1 sequence (P56817 whole entry): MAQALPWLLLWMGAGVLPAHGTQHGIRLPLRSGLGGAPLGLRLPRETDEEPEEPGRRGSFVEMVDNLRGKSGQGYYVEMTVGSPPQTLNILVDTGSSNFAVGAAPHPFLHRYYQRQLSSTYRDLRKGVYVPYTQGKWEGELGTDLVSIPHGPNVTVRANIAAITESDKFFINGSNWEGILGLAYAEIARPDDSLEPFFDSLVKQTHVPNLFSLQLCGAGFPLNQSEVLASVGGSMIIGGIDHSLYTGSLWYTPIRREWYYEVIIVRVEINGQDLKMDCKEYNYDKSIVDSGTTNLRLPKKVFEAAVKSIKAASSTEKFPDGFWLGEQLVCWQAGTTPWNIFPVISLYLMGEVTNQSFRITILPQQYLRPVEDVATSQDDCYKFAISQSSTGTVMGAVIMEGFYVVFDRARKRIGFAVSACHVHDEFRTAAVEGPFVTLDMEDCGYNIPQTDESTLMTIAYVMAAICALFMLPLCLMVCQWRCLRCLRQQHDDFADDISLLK
T2 sequence (P05067 whole entry): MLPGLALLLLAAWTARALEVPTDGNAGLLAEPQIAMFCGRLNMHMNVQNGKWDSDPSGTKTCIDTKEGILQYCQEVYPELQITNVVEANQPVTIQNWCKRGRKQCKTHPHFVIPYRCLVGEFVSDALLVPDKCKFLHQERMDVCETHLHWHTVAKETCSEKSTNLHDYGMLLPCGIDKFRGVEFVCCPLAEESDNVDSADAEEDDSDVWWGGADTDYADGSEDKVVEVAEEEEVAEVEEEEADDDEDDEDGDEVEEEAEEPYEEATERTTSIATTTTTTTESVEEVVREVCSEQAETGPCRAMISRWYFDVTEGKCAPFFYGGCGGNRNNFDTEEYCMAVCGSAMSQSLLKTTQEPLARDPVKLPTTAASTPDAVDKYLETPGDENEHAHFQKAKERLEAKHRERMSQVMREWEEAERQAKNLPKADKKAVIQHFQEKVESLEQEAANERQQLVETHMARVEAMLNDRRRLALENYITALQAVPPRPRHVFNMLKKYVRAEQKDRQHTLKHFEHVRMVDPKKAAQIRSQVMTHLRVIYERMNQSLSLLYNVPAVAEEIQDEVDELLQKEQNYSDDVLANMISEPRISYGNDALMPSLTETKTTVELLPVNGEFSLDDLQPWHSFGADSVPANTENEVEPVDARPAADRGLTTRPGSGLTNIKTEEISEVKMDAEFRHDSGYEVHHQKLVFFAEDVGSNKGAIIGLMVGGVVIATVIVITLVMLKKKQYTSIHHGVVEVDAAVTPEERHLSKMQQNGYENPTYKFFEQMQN

As for `OC[C@@H]1Cc2c([nH]c3ccccc23)CN1Cc1cn(C[C@@H]2Cc3c([nH]c4ccccc34)CN2)nn1`, the inhibition in data set [1] amounted to 67.5%; in data set [6], 8.46%; in data set [10], 80.2%. The pIC50 is 4.78 in [2] and 4.18 in [5]. In data set [3], the viability at 18 h, 10 µM was 124%. In addition, the viability at 18 h, 0.1 µM in data set [4] came to 129%. The result in [7] was Active. Besides, the Activity in data set [8] turned out to be 136.09%; in [11], 93.25%. Moreover, the viability at 18 h, 0.001 µM in data set [9] came to 131%. The viability at 18 h, 0.01 µM in [12] was 131%. For the same compound, the viability at 18 h, 1 µM in data set [13] was determined as 131%.

`N[C@@H](Cc1c[nH]c2ccccc12)Cn1cc(-c2ccc(Cl)c(Cl)c2)nn1`: the inhibition in data set [1] turned out to be 61.5%; in data set [6] it was 0%; in data set [10], 67.6%. The viability at 18 h, 10 µM in data set [3] is 93.8%. For the same compound, the viability at 18 h, 0.1 µM in [4] worked out at 116%. The values for the Activity in data set [8] and in data set [11] were 118.7% and 84.13%, respectively. Moreover, in data set [9], the viability at 18 h, 0.001 µM was 139%. In addition, in data set [12], the viability at 18 h, 0.01 µM amounted to 128%. The viability at 18 h, 1 µM in [13] was found to be 108%.

With `N[C@@H](Cc1c[nH]c2ccccc12)Cn1cc(CNC(=O)/C=C/c2ccc(O)c(O)c2)nn1`, the inhibition was determined as 40% in [1], 50.6% in [6] and 81.5% in data set [10]. In addition, in [3], the viability at 18 h, 10 µM amounted to 140%. Besides, the viability at 18 h, 0.1 µM in data set [4] was determined as 135%. Further, the Activity is listed as 131.74% in [8] and 62.21% in data set [11]. Further, in data set [9], the viability at 18 h, 0.001 µM came out at 133%. Also, the viability at 18 h, 0.01 µM in data set [12] is 130%. Also, the viability at 18 h, 1 µM in data set [13] turned out to be 129%.

The compound `O=c1c(O)c(-c2ccc(O)c(O)c2)oc2cc(O)cc(O)c12` [QUERCETIN] gave a pIC50 in data set [14] of 5.10. Also, the figures for the Activity in [8] and in data set [11] were 40.43% and 58.37%, respectively.

`O=C(/C=C/c1ccc(O)c(O)c1)NCc1cn(C[C@@H]2Cc3c([nH]c4ccccc34)CN2)nn1`: the results for the inhibition in data set [1], in data set [6] and in data set [10] were 21.7%, 92.3% and 84.1%, respectively. This compound showed a pIC50 in data set [2] of under 4.30. In addition, the viability at 18 h, 10 µM in data set [3] was found to be 140%. In addition, the viability at 18 h, 0.1 µM in [4] was 125%. Also, the Activity in [8] was 123.04%; in data set [11] it was 57.54%. For the same compound, the viability at 18 h, 0.001 µM in data set [9] came out at 130%. Further, the viability at 18 h, 0.01 µM in [12] came to 139%. In data set [13], the viability at 18 h, 1 µM amounted to 120%.

Consider `COC1=C2C[C@@H](C)C[C@H](OC)[C@H](O)[C@@H](C)/C=C(\C)[C@H](OC(N)=O)[C@@H](OC)/C=C\C=C(/C)C(=O)NC(=CC1=O)C2=O` [GELDANAMYCIN], for which the Activity in data set [8] turned out to be 55.22%; in data set [11], 59.14%.
